Measurements as given in patent publication US9516824B2, “Method for modulating the number of archesporial cells in a developing anther” (The Board of Trustees of the Leland Stanford Junior …, priority 2012, dated 2016).
Entries after “also recorded” stand apart in the source; their conditions may differ.

How the values were obtained:
maize anthers [1] = assay: Oxygen tension / ROS manipulation of the tassel airspace (gas by hose or needle, chemical injection): locule cell counts and SPL/EN bilayer progression by confocal imaging; conditions: for AR specification / AR cell counts compared to puncture controls: injected into tassel airspace: 1 mM H2O2, 10 mM KI, 200 μM PTIO, 48 h prior to dissection; for AR specification / AR cell counts compared to puncture controls / somatic bilayer formation / development / AR morphological differentiation: 100 μM L-NNA, 20 μM SNP; for somatic bilayer formation / development: injected: 1 mM H2O2, 200 μM PTIO, compared to puncture control and untreated; for peripheral counts compared to needle puncture control / total L2 counts compared to needle puncture control: injection of 1 mL of 1 mM H2O2 or 10 mM KI; for AR morphological differentiation: injected: 200 μM PTIO; for SPL/EN bilayer (somatic niche) formation: gas treatment by hose or needle, 24 or 48 h; for peripheral somatic cell counts: late stages after 48 hour gas exposure
Procedure: Fertile W23 inbred anthers were stained with propidium iodide and imaged in Z-stack using a Leica SP5 confocal microscope (6). The ontogeny of locular cell types was cataloged over ˜2.5 days as anthers grew in length from 100 to 300 μm. […] The morphological characteristics of pre-meiotic cells are well established (18).
N2 or O2 gas was administered through hoses threaded into the leaf whorl (FIG. 15B). […] Alternatively, nitrogen, oxygen, or compressed air (20% O2) were administered by connecting gas lines to a needle inserted into the tassel airspace (FIGS. 15, C and D). In all experiments, a low flow of gas was administered over a 24 (A619) or 48 hour period (W23). Total locule cells (FIGS. 2, B, H, and M), peripheral somatic cells (FIGS. 2, C, I, and N), and central AR cells (FIGS. 2, D, J, and O) were quantified.
Confocal imaging, and EdU and PI staining were performed as described previously (6). Oxygen probe was an Oxygraph Tx3 (NTH-Pst1-L5-NS40-0.8-YOP) obtained from Presens (Regensburg, Germany). All chemicals were obtained from Sigma Chemical Co. (St. Louis, Mo.) and dissolved in water at the indicated molarities and injected using a 26 gauge needle into the airspace surrounding the immature tassel.

maize anthers [2] = assay: Ectopic archesporial (AR) cell formation after reducing or oxidizing treatments; type: in vivo; conditions: for ectopic AR location by CT: internal (near or in the CT and VT); for # having ectopic AR: number of anthers; for ectopic AR location by EPI: superficial (near or on the EPI)
[3] = fertile, needle trial, 48 h gas treatment
[4] = fertile genotype, listed as N2 (direct)
[5] = fertile genotype, listed as N2 (hose)
[6] = fertile genotype, listed as O2 (direct)
[7] = fertile genotype, listed as O2 (hose)

c1ccc2c(c1)[I+]c1ccccc1-2 [DPI, Diphenylene iodonium]
effect on tassel tissues (maize anthers [1]; injected into tassel airspace): complete degeneration of the tassel tissues

OO [H2O2, hydrogen peroxide]
AR count (treatment effect) (maize anthers [1]; fertile genotype): fewer
SPL/EN timing (treatment effect) (maize anthers [1]; fertile genotype): delayed
AR specification / AR cell counts compared to puncture controls (maize anthers [1]): lowered AR cell counts
somatic bilayer formation / development (maize anthers [1]): inhibited subsequent somatic bilayer formation
peripheral counts compared to needle puncture control (maize anthers [1]): greatly reduced
total L2 counts compared to needle puncture control (maize anthers [1]): greatly reduced
AR count (treatment effect) (maize anthers [1]; mac1 genotype): extra
ectopic AR location by CT (maize anthers [2]; fertile genotype): 0
# having ectopic AR (maize anthers [2]; fertile genotype): 0
ectopic AR location by EPI (maize anthers [2]; fertile genotype): 0
ectopic AR location by CT (maize anthers [2]; mac1 genotype): 0
# having ectopic AR (maize anthers [2]; mac1 genotype): 0
ectopic AR location by EPI (maize anthers [2]; mac1 genotype): 0
AR specification in msca1 anthers (maize anthers [2]): lacked AR
AR per event (average count of ectopic AR cells in each instance) (maize anthers [2]; msca1 genotype): 2
niche - forming (periclinal divisions generating EN/SPL-like bilayer around ectopic AR) (maize anthers [2]; msca1 genotype): yes
ectopic AR location by CT (maize anthers [2]; msca1 genotype): 0
# having ectopic AR (maize anthers [2]; msca1 genotype): 0
ectopic AR location by EPI (maize anthers [2]; msca1 genotype): 0

[I-].[K+] [KI]
AR:total L2 ratios (maize anthers [1]; 10 mM KI injected): increased AR:total L2 ratios
AR count (treatment effect) (maize anthers [1]; fertile genotype): extra
SPL/EN timing (treatment effect) (maize anthers [1]; fertile genotype): early
AR specification / AR cell counts compared to puncture controls (maize anthers [1]): dramatically promoted AR specification
peripheral counts compared to needle puncture control (maize anthers [1]): did not alter
total L2 counts compared to needle puncture control (maize anthers [1]): did not alter
AR count (treatment effect) (maize anthers [1]; mac1 genotype): extra
AR count (treatment effect) (maize anthers [1]; msca1 genotype): extra
AR per event (average count of ectopic AR cells in each instance) (maize anthers [2]; fertile genotype): 7
ectopic AR location by CT (maize anthers [2]; fertile genotype): 0
# having ectopic AR (maize anthers [2]; fertile genotype): 2
ectopic AR location by EPI (maize anthers [2]; fertile genotype): 2
# having ectopic AR (maize anthers [2]; mac1 genotype): 0
ectopic AR location by EPI (maize anthers [2]; mac1 genotype): 0
AR specification in msca1 anthers (maize anthers [2]): caused AR specification
AR per event (average count of ectopic AR cells in each instance) (maize anthers [2]; msca1 genotype): 3
# having ectopic AR (maize anthers [2]; msca1 genotype): 6
ectopic AR location by EPI (maize anthers [2]; msca1 genotype): 5
percent of treated anthers having AR cells (maize anthers [2]; msca1 mutant, 20 μM SNP or KI injected): 9.5%

N=C(NCCC[C@H](N)C(=O)O)N[N+](=O)[O-] [L-NNA, N^G-nitro-L-Arginine]
AR count (treatment effect) (maize anthers [1]; fertile genotype): fewer
SPL/EN timing (treatment effect) (maize anthers [1]; fertile genotype): delayed
AR specification / AR cell counts compared to puncture controls (maize anthers [1]): slightly repressed; also recorded: slightly suppressed AR counts
AR morphological differentiation (maize anthers [1]): slowed the morphological differentiation of central AR cells; also recorded: delayed AR morphological differentiation
somatic bilayer formation / development (maize anthers [1]): dramatically delayed
AR count (treatment effect) (maize anthers [1]; mac1 genotype): extra
AR per event (average count of ectopic AR cells in each instance) (maize anthers [2]; fertile genotype): 2
niche - forming (periclinal divisions generating EN/SPL-like bilayer around ectopic AR) (maize anthers [2]; fertile genotype): yes
ectopic AR location by CT (maize anthers [2]; fertile genotype): 1
# having ectopic AR (maize anthers [2]; fertile genotype): 1
ectopic AR location by EPI (maize anthers [2]; fertile genotype): 0
ectopic AR location by CT (maize anthers [2]; mac1 genotype): 0
# having ectopic AR (maize anthers [2]; mac1 genotype): 0
ectopic AR location by EPI (maize anthers [2]; mac1 genotype): 0
AR specification in msca1 anthers (maize anthers [2]): lacked AR
ectopic AR location by CT (maize anthers [2]; msca1 genotype): 0
# having ectopic AR (maize anthers [2]; msca1 genotype): 0
ectopic AR location by EPI (maize anthers [2]; msca1 genotype): 0

N#N [N2, nitrogen]
AR count (treatment effect) (maize anthers [1]; fertile genotype): extra
SPL/EN timing (treatment effect) (maize anthers [1]; fertile genotype): early
AR specification and AR cell counts compared to untreated fertile anthers (maize anthers [1]; fertile, all three gas protocols (hose 48 h W23, hose 24 h A619, needle)): early specification and excess AR cells
AR:total L2 ratio (maize anthers [1]; fertile, gas treatment): elevated ratios
SPL/EN bilayer (somatic niche) formation (maize anthers [1]; fertile): formed early; also recorded: precocious bilayer formation
central AR as fraction of total L2 cells (maize anthers [1]; fertile, gas treatment, early stages): up to 25%
peripheral somatic cell counts (maize anthers [1]; fertile): increased peripheral somatic cell counts
AR counts (maize anthers [1]; [3]): Excess presumptive AR cells
AR count (treatment effect) (maize anthers [1]; mac1 genotype): extra
AR count (treatment effect) (maize anthers [1]; msca1 genotype): none
AR per event (average count of ectopic AR cells in each instance) (maize anthers [2]; fertile genotype): 5
ectopic AR location by CT (maize anthers [2]; fertile genotype): 0
# having ectopic AR (maize anthers [2]; [4]): 4
# having ectopic AR (maize anthers [2]; [5]): 0
ectopic AR location by EPI (maize anthers [2]; [4]): 4
ectopic AR location by EPI (maize anthers [2]; [5]): 0
ectopic AR formation (maize anthers [2]; hose protocol): did not cause ectopic AR in any anthers
AR per event (average count of ectopic AR cells in each instance) (maize anthers [2]; mac1 genotype): 3
ectopic AR location by CT (maize anthers [2]; mac1 genotype): 2
# having ectopic AR (maize anthers [2]; mac1 genotype): 7
ectopic AR location by EPI (maize anthers [2]; mac1 genotype): 5
ectopic AR location by CT (maize anthers [2]; msca1 genotype): 0
# having ectopic AR (maize anthers [2]; msca1 genotype): 0
ectopic AR location by EPI (maize anthers [2]; msca1 genotype): 0

O=O [O2, oxygen]
AR count (treatment effect) (maize anthers [1]; [6]): extra
SPL/EN timing (treatment effect) (maize anthers [1]; [6]): delayed
AR count (treatment effect) (maize anthers [1]; [7]): fewer
SPL/EN timing (treatment effect) (maize anthers [1]; [7]): late
SPL/EN bilayer (somatic niche) formation (maize anthers [1]; fertile): delayed
AR specification (maize anthers [1]; fertile, hose gas treatment): repressed AR specification
AR counts (maize anthers [1]; fertile, hose, 24 hour exposure): significantly fewer AR than either untreated or N2
central AR counts (maize anthers [1]; fertile, hose, 48 hour treatment): far lower than N2
peripheral somatic cell counts (maize anthers [1]; fertile): increased peripheral somatic cells in the late stages
AR counts (maize anthers [1]; [3]): elevated in the needle trial, less than compressed air and dramatically less than nitrogen
AR count (treatment effect) (maize anthers [1]; mac1 genotype): extra
AR count (treatment effect) (maize anthers [1]; msca1 genotype): none
AR per event (average count of ectopic AR cells in each instance) (maize anthers [2]; fertile genotype): 3.7
niche - forming (periclinal divisions generating EN/SPL-like bilayer around ectopic AR) (maize anthers [2]; fertile genotype): ~half
ectopic AR location by CT (maize anthers [2]; [6]): 12
ectopic AR location by CT (maize anthers [2]; [7]): 0
# having ectopic AR (maize anthers [2]; [6]): 18
# having ectopic AR (maize anthers [2]; [7]): 0
ectopic AR location by EPI (maize anthers [2]; [6]): 6
ectopic AR location by EPI (maize anthers [2]; [7]): 0
ectopic AR location by CT (maize anthers [2]; mac1 genotype): 0
# having ectopic AR (maize anthers [2]; mac1 genotype): 0
ectopic AR location by EPI (maize anthers [2]; mac1 genotype): 0
ectopic AR location by CT (maize anthers [2]; msca1 genotype): 0
# having ectopic AR (maize anthers [2]; msca1 genotype): 0
ectopic AR location by EPI (maize anthers [2]; msca1 genotype): 0

CC1(C)N([O])C(c2ccccc2)=[N+]([O-])C1(C)C [PTIO, 2-Phenyl-4,4,5,5-tetramethylimidazoline-1-oxyl-3-oxide]
AR count (treatment effect) (maize anthers [1]; fertile genotype): fewer
SPL/EN timing (treatment effect) (maize anthers [1]; fertile genotype): delayed
AR specification / AR cell counts compared to puncture controls (maize anthers [1]): slightly repressed; also recorded: slightly suppressed AR counts
AR morphological differentiation (maize anthers [1]): slowed the morphological differentiation of central AR cells; also recorded: delayed AR morphological differentiation
somatic bilayer formation / development (maize anthers [1]): dramatically delayed
AR count (treatment effect) (maize anthers [1]; mac1 genotype): extra
AR per event (average count of ectopic AR cells in each instance) (maize anthers [2]; fertile genotype): 5
niche - forming (periclinal divisions generating EN/SPL-like bilayer around ectopic AR) (maize anthers [2]; fertile genotype): yes
ectopic AR location by CT (maize anthers [2]; fertile genotype): 3
# having ectopic AR (maize anthers [2]; fertile genotype): 4
ectopic AR location by EPI (maize anthers [2]; fertile genotype): 1
ectopic AR location by CT (maize anthers [2]; mac1 genotype): 0
# having ectopic AR (maize anthers [2]; mac1 genotype): 0
ectopic AR location by EPI (maize anthers [2]; mac1 genotype): 0
AR specification in msca1 anthers (maize anthers [2]): lacked AR
ectopic AR location by CT (maize anthers [2]; msca1 genotype): 0
# having ectopic AR (maize anthers [2]; msca1 genotype): 0
ectopic AR location by EPI (maize anthers [2]; msca1 genotype): 0
